Measured values taken from patent publication US20250145637A1, “SULFONAMIDE DERIVATIVE, PREPARATION METHOD THEREFOR AND MEDICAL USE THEREOF” (Jiangsu Hengrui Pharmaceuticals Co. Ltd., priority 2021, published 2025).

Columns and labels:
[1] = target: human KAT6A (Homo sapiens (Human), UniProt Q92794); assay: KAT6 enzyme activity assay (AlphaScreen method), KAT6A; format: biochemical; details: inhibition of the enzyme human KAT6A
From the text: Test Example 1: KAT6 Enzyme Activity Assay (AlphaScreen Method)
I. Reagents and instrument • 1. KAT6A (customized by Chempartner) • 2. Ovalbumin (Sigma-Aldrich, A5378-5G) • 3. 2 M Tris-HCl solution, pH 7.8, sterile (Sangon, B548140-0500) • 4. 5 M NaCl solution (Sangon, B548121-0100) • 5. EDTA (0.5 M), pH 8.0, RNase-free (Thermofisher, AM9260G) • 6. Tween-20 (Sangon, A100777-0500) • 7. DTT, 1 M (Invitrogen, P2325) • 8. Acetyl coenzyme A (Ac-CoA, CAYMAN, Cat. No. 16160) • 9. Recombinant histone H3.1 biotinylated (human) (Active Motif 31696) • 10. 384-well plate, light gray (Perkin Elmer, Cat. No. 6005350) • 11. Anacardic acid (MCE, Cat. No. HY—N2020) • 12. AlphaScreen streptavidin donor beads, 5 mg (PerkinElmer, 6760002) • 13. AlphaScreen protein A acceptor beads, 5 mg (PerkinElmer, 6760137M) • 14. Acetylated-lysine antibody #9441 (CST 9441S) • 15. PHERA star microplate reader (BMG labtech) • II. Experimental method
a. 1× assay buffer: 100 mM Tris-HCl, pH 7.8; 15 mM NaCl; 1 mM EDTA; 0.01% tween-20; 1 mM DTT; 0.01% m/v ovalbumin.
b. KAT enzyme solution: 1.25 nM (final concentration), prepared in 1× assay buffer.
c. Mixed substrate of Ac-CoA and H3: a mixed substrate of 1000 nM (final concentration) Ac-CoA and 55 nM (final concentration) H3, prepared in 1× assay buffer.
d. Compounds: initial concentration of 100 μM, 3-fold dilution, 10 gradient concentrations. All compound concentrations were diluted 83-fold with 1× assay buffer for later use.
e. Assay reagent: 8 ng/μL (final concentration) AlphaScreen protein A acceptor beads, 8 ng/μL AlphaScreen streptavidin donor beads, 1:1500 diluted acetylated-lysine antibody, and 100 μM anacardic acid; prepared in 1× assay buffer.
(§1) 2. Experimental Procedure
a. The prepared enzyme solution was added to a 384-well plate at 3 μL/well, and 3 μL of 1× assay buffer was added to each well in columns 23 and 24 (Min).
b. 3 μL of compound solution was added to each well, and 3 μL of buffer was added to each Min well; 3 μL of DMSO solution was added to each well in columns 1 and 2 (Max) as controls. The plate was centrifuged, shaken for 2 min, and incubated at room temperature for 15 min.
c. The mixed substrate of Ac-CoA and H3 was added at 6 μL/well, and the plate was centrifuged, shaken for 2 min, and incubated at room temperature for 20 min.
d. The assay reagent was added at 6 μL/well, and the plate was centrifuged, shaken for 2 min, and incubated in the dark at room temperature for 120 min.
(§2) e. Plate reading was performed on the microplate reader, and AlphaScreen counts were recorded.
f. Plotting was performed using the Graphpad software, and the IC50 values of the compounds were calculated.

[2] = target: human KAT6B (Homo sapiens (Human), UniProt Q8WYB5); assay: KAT6B enzyme activity assay (AlphaScreen method); format: biochemical; details: inhibition of the enzyme human KAT6B
From the text: Test Example 2: KAT6B Enzyme Activity Assay (AlphaScreen Method)
I. Reagents and Instrument
• 1. KAT6B (718-1008) (ActiveMotif, 81224) • 2. Bovine serum albumin (Sangon, A500023-0100) • 3. 2 M Tris-HCl solution, pH 7.8, sterile (Sangon, B548140-0500) • 4. EDTA (0.5 M), pH 8. 0, RNase-free (Thermofisher, AiM9260G) • 5. Tween-20 (Sangon, A100777-0500) • 6. DTT, 1 M (Invitrogen, P2325) • 7. Acetyl coenzyme A (Ac-CoA, CAYMAN, Cat. No. 16160) • 8. Recombinant histone H3.1 biotinylated (human) (Active Motif 31696) • 9. 384-well plate, light gray (Perkin Elmer, Cat. No. 6007290) • 10. Anacardic acid (MCE, Cat. No. HY—N2020) • 11. AlphaScreen streptavidin donor beads, 5 mg (PerkinElmer, 6760002) • 12. AlphaScreen protein A acceptor beads, 5 mg (PerkinElmer, 6760137M) • 13. Acetylated-lysine antibody #9441 (CST 9441S) • 14. DMSO (Tansoole, G7592B) • 15. PHERA star microplate reader (BMG labtech)
a. 1× buffer 2: 50 mM Tris-HCl, pH 7.8; 0.1 mM EDTA; 0.01% v/v tween-20; 1 mM DTT; 0.01% m/v bovine serum albumin.
b. KAT6B enzyme solution: 3 nM (final concentration), prepared in buffer 2.
c. Mixed substrate of Ac-CoA and H3: a mixed substrate of 30 nM (final concentration) Ac-CoA and 30 nM (final concentration) H3, prepared in buffer 2.
d. Compounds: initial concentration of 10 mM, 4-fold dilution, 10 gradient concentrations. All compound concentrations were diluted 2500-fold with buffer 2 for later use.
e. Assay reagent: 8 ng/μL (final concentration) AlphaScreen protein A acceptor beads, 8 ng/μL AlphaScreen streptavidin donor beads, 1:1000 diluted acetylated-lysine antibody, and 100 μM anacardic acid; prepared in buffer 2.
as §1
a. The prepared compound solutions were added to a 384-well plate at 2 μL/well, and 2 μL of buffer 2 (containing 0.04% DMSO) was added to each Min well and each Max well as controls. The plate was centrifuged.
b. The prepared enzyme solution was added at 2 μL/well, and 2 μL of buffer 2 was added to each Min well. The plate was centrifuged, shaken for 2 min, and incubated at room temperature for 10 min.
c. The mixed substrate of Ac-CoA and H3 was added at 4 μL/well, and the plate was centrifuged, shaken for 2 min, and incubated at room temperature for 120 min.
d. The assay reagent was added at 4 μL/well, and the plate was centrifuged, shaken for 2 min, and incubated in the dark at room temperature for 120 min.
as §2
f. Dose-response curves were plotted using log(inhibitor) vs. response of the graphpad prism software, with the abscissa representing the logarithm of the compound concentration and the ordinate representing the calculated enzyme activity inhibition rate, and IC50 values were calculated.

Sequence of human KAT6A (Q92794 whole entry): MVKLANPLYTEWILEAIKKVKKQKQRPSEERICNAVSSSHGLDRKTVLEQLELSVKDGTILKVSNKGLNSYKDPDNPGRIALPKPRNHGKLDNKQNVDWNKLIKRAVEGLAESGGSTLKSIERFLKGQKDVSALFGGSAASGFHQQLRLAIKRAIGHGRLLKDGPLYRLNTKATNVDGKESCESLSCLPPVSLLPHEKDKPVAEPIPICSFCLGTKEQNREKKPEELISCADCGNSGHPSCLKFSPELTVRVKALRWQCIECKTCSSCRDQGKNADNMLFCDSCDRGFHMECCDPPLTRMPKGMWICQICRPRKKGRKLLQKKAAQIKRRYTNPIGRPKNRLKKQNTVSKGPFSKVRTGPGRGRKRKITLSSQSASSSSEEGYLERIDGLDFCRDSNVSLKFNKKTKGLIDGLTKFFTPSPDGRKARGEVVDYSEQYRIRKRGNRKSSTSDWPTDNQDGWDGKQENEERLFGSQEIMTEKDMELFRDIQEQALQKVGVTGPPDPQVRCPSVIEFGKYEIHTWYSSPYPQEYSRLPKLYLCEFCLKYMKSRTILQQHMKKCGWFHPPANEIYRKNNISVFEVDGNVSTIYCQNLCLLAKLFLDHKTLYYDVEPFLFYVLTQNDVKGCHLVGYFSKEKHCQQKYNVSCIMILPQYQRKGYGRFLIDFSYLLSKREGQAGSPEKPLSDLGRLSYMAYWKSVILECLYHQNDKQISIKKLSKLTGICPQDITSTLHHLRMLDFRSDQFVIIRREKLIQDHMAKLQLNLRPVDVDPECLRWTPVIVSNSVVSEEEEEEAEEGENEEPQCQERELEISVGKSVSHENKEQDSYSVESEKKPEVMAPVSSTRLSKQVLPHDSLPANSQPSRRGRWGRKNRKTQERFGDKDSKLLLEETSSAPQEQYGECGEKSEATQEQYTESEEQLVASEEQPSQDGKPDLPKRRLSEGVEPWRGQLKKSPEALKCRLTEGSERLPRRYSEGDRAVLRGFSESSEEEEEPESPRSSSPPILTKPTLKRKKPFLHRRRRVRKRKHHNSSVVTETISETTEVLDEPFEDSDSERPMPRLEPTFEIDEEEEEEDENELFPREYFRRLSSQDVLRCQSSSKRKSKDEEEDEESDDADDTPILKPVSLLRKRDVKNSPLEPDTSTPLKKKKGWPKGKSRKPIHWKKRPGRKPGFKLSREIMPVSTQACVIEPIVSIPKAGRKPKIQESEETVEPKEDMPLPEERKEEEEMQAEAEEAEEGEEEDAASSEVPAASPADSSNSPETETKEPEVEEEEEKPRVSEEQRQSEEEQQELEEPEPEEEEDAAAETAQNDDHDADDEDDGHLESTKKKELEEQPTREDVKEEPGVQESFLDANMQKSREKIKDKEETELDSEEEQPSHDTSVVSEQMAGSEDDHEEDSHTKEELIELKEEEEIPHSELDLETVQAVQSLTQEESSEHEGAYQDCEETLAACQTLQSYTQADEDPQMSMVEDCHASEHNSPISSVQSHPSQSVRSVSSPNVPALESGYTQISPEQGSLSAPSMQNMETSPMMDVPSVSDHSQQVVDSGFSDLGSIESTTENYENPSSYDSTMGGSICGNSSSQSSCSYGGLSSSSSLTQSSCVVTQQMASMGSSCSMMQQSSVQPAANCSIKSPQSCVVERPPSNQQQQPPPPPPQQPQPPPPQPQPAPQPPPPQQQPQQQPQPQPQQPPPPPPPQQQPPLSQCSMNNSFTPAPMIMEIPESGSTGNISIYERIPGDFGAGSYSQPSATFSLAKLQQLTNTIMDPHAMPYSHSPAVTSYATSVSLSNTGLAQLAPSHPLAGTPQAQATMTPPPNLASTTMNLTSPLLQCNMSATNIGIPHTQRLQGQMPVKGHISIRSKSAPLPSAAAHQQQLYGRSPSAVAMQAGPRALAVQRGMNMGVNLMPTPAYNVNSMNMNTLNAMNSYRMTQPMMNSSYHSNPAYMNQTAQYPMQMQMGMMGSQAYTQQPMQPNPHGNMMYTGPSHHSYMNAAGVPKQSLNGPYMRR
Sequence of human KAT6B (Q8WYB5 718-1008): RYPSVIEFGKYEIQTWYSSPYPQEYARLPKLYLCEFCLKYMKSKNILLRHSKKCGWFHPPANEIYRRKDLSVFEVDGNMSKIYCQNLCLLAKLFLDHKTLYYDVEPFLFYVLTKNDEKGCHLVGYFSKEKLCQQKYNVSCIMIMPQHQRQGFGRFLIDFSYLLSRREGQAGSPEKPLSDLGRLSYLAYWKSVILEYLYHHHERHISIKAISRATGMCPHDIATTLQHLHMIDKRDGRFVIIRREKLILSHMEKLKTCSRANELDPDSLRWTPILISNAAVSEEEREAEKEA

IC50 [1] [pM]	IC50 [2] [pM]	Structure (SMILES)
2900	–	COc1ccccc1S(=O)(=O)Nc1noc2cc(Cn3cccn3)c3c(c12)OCC3 [Compound 20, N-(4-((1H-pyrazol-1-yl)methyl)-2,3-dihydrobenzofuro[7,6-d]isoxazol-8-yl)-2-methoxybenzenesulfonamide]
1000	1500	COc1cccc(OC)c1S(=O)(=O)Nc1noc2cc(Cn3cccn3)c3c(c12)OC(F)(F)O3 [Compound 5, N-(4-((1H-pyrazol-1-yl)methyl)-2,2-difluoro-[1,3]dioxolo[4′,5′:5,6]benzo[1,2-d]isoxazol-8-yl)-2,6-dimethoxybenzenesulfonamide]
–	700	COc1cccc(OC)c1S(=O)(=O)Nc1noc2cc(Cn3cccn3)c3c(c12)OCCC3 [Compound 2, N-(5-((1H-pyrazol-1-yl)methyl)-3,4-dihydro-2H-chromeno[8,7-d]isoxazol-9-yl)-2,6-dimethoxybenzenesulfonamide]
500	1400	COc1ccccc1S(=O)(=O)Nc1noc2cc(Cn3cccn3)c3c(c12)OCCC3 [Compound 3, N-(5-((1H-pyrazol-1-yl)methyl)-3,4-dihydro-2H-chromeno[8,7-d]isoxazol-9-yl)-2-methoxybenzenesulfonamide]
600	1100	COc1cccc(OC)c1S(=O)(=O)Nc1noc2cc(Cn3cccn3)c3c(c12)OCC3 [Compound 1, N-(4-((1H-pyrazol-1-yl)methyl)-2,3-dihydrobenzofuro[7,6-d]isoxazol-8-yl)-2,6-dimethoxybenzenesulfonamide]

The next lines start with the compound.

Structure (SMILES)	IC50 [1] [pM]	IC50 [2] [pM]
COc1cccc(OC(F)(F)F)c1S(=O)(=O)Nc1noc2cc(Cn3cccn3)c3c(c12)OCCC3 [Compound 10, N-(5-((1H-pyrazol-1-yl)methyl)-3,4-dihydro-2H-chromeno[8,7-d]isoxazol-9-yl)-2-methoxy-6-(trifluoromethoxy)benzenesulfonamide]	900	–
CCOc1cc(C)ccc1S(=O)(=O)Nc1noc2cc(Cn3cccn3)c3c(c12)OCCC3 [Compound 7, N-(5-((1H-pyrazol-1-yl)methyl)-3,4-dihydro-2H-chromeno[8,7-d]isoxazol-9-yl)-2-ethoxy-4-methylbenzenesulfonamide]	500	–
COc1cccc(OC(F)(F)F)c1S(=O)(=O)Nc1noc2cc(Cn3cccn3)c3c(c12)OCC3 [Compound 23, N-(4-((1H-pyrazol-1-yl)methyl)-2,3-dihydrobenzofuro[7,6-d]isoxazol-8-yl)-2-methoxy-6-(trifluoromethoxy)benzenesulfonamide]	4800	–
COc1ccc(F)cc1S(=O)(=O)Nc1noc2cc(Cn3cccn3)c3c(c12)OCCC3 [Compound 9, N-(5-((1H-pyrazol-1-yl)methyl)-3,4-dihydro-2H-chromeno[8,7-d]isoxazol-9-yl)-5-fluoro-2-methoxybenzenesulfonamide]	700	–
Cc1ccc(S(=O)(=O)Nc2noc3cc(Cn4cccn4)c4c(c23)OCCC4)c(OCC(F)(F)F)c1 [Compound 8, N-(5-((1H-pyrazol-1-yl)methyl)-3,4-dihydro-2H-chromeno[8,7-d]isoxazol-9-yl)-4-methyl-2-(2,2,2-trifluoroethoxy)benzenesulfonamide]	700	–
